By IC50 is commonly meant the point on the concentration scale where inhibition reaches its midpoint.

In experiment [1] the target is LRRK2 (Homo sapiens, UniProt Q5S007). Kind of experiment: LRRK2 assay (LanthaScreen Eu Kinase Binding Assay). The settings on record: 5 nM LRRK2, 10 nM tracer 236, RT 1 h; read-out: LRRK2 Activites: IC50. The gist of the method: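 Kinase binding was detected by europium anti-tag antibody FRET with a competing tracer, so inhibitor binding lowers the FRET signal. IC50 came from a variable-slope sigmoidal fit of emission ratio against inhibitor concentration.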
(In TR-FRET formats the signal depends on donor and acceptor labels being close together.)

Experiment [2] has as its target MYLK (Homo sapiens, UniProt Q15746). Kind of experiment: MYLK assay (LanthaScreen Eu Kinase Binding Assay). Particulars: 5 nM MYLK, 30 nM tracer 236, RT 1 h; read-out: MYLK Activites: IC50. The gist of the method:
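TR-FRET tracer-displacement binding: 5 nM MYLK with 2 nM Eu-anti-GST antibody and 30 nM tracer 236 in kinase buffer A, 1 h at RT. The 665/615 nm emission ratio was plotted against inhibitor concentration; IC50 from variable-slope sigmoidal fit.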

Experiment [3] addresses T1, SYK kinase (Homo sapiens, UniProt P43405).
T1 construct: purchased Invitrogen, Carlsbad
Kind of experiment: SYK assay (OMNIA Kinase Assay, Invitrogen). Type of experiment: biochemical. Particulars: apparent Ki calculated from the IC50 using the Cheng-Prusoff equation; 1 mM ATP, 10 μM Peptide Substrate; read-out: SYK Activities: Ki. The gist of the method:
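Continuous SOX-fluorescence (Omnia) readout of Tyr 7 peptide (10 μM) phosphorylation with 1 mM ATP and 0.2 mM DTT at 30° C, started by SYK addition. Fluorescence (λex 360/λem 485 nm) was read every 30 s for 30 min. IC50 from velocity vs concentration; apparent Ki via Cheng-Prusoff.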

Sequence of MYLK (Q15746 whole entry): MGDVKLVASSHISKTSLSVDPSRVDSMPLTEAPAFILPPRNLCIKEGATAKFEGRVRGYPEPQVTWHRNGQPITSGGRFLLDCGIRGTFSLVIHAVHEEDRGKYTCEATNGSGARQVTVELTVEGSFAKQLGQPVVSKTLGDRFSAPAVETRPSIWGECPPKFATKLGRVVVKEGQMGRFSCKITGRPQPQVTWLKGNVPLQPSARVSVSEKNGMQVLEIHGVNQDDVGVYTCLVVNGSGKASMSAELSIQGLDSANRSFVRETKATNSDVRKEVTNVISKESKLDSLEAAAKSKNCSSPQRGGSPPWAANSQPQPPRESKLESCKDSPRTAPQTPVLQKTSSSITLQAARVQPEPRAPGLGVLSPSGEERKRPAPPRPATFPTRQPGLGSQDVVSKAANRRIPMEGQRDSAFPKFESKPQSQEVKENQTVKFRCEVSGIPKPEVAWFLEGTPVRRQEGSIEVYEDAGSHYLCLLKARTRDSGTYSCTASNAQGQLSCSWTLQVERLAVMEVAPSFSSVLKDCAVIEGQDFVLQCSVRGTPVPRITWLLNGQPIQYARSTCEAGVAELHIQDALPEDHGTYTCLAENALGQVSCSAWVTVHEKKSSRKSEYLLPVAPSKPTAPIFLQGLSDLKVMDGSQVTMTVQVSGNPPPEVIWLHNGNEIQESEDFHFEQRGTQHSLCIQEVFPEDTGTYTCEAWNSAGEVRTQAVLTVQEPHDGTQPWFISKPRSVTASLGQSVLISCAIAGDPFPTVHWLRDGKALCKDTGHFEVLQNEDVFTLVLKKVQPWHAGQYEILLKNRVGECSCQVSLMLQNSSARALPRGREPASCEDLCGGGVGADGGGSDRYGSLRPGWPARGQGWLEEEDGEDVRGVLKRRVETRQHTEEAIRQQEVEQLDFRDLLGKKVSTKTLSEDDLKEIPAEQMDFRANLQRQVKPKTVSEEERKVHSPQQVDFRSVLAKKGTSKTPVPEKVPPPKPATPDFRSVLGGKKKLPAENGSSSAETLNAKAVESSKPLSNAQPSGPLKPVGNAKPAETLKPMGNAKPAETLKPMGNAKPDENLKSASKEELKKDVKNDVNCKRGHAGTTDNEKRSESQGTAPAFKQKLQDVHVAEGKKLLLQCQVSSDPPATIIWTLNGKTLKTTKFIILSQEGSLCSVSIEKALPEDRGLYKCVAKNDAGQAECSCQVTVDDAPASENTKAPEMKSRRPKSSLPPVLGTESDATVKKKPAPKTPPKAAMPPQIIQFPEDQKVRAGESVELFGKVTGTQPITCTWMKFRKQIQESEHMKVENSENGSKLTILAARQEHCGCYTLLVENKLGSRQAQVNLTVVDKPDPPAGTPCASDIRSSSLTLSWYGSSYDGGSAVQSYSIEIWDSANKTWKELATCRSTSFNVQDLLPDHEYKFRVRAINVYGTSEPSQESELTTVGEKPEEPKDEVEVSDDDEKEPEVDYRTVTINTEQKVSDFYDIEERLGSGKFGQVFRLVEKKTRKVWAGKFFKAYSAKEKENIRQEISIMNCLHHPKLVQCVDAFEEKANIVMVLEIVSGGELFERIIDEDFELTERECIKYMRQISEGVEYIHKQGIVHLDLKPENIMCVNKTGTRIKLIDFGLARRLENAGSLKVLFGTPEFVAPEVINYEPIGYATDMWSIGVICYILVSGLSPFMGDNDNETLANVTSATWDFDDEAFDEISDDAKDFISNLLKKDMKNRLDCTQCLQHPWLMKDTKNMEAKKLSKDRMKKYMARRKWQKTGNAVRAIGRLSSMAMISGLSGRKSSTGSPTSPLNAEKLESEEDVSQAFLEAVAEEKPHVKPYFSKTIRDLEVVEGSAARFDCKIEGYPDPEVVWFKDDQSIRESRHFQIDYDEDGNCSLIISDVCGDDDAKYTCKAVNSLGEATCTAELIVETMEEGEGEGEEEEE
Sequence of LRRK2 (Q5S007 970-2527 limits assumed): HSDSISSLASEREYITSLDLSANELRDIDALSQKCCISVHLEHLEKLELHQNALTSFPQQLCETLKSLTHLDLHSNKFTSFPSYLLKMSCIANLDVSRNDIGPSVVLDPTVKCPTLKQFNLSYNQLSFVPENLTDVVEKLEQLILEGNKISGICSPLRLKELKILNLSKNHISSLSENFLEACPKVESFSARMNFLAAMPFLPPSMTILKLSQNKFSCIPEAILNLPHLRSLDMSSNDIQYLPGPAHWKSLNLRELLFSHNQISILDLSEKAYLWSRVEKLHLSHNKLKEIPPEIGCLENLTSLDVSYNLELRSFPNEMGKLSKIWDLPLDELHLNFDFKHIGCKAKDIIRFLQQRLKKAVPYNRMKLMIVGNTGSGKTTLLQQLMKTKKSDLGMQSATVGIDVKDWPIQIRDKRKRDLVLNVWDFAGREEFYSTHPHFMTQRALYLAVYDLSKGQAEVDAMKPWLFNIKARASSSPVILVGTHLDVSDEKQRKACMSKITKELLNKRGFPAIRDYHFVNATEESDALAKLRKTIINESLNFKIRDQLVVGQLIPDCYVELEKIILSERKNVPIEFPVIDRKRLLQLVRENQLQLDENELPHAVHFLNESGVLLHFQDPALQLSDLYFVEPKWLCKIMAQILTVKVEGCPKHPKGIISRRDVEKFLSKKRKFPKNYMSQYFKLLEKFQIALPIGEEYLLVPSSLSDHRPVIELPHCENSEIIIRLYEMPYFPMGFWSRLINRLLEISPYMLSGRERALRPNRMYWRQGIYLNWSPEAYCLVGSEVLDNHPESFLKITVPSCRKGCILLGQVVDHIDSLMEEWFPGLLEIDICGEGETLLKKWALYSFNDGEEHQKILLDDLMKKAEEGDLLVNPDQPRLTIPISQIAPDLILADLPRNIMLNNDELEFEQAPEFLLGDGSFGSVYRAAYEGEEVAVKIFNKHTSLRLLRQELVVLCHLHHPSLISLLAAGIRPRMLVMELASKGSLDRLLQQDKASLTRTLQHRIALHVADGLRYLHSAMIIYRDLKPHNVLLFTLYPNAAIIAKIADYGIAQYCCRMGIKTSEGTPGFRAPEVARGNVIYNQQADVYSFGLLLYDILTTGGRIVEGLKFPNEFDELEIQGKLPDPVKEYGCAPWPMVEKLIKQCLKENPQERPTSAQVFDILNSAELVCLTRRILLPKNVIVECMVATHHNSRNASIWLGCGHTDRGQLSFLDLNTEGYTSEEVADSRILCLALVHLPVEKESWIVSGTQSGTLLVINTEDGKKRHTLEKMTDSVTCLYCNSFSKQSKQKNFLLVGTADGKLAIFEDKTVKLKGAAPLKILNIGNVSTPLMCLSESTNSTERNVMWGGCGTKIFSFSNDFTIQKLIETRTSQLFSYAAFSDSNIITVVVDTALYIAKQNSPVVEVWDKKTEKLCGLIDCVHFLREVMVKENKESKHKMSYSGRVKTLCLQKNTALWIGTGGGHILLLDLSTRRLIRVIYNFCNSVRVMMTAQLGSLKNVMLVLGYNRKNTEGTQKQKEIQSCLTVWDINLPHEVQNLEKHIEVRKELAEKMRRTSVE

Consider `COc1ccc2c(c1)nc(Nc1ccc(N3CCN(C4CC4)CC3)cc1)c1n[nH]cc12` [Example #262, [4-(4-Cyclopropyl-piperazin-1-yl)-phenyl]-(7-methoxy-2H-pyrazolo[3,4-c]quinolin-4-yl)-amine], for which the IC50 in experiment [1] is 100 to 1000 nM; in experiment [2], under 5000 nM. Also, in experiment [3], the Ki was 10 to 100 nM.
As to `COc1ccc2nc(Nc3ccc(N4CCNCC4)cc3)c3n[nH]cc3c2c1` [Example #184, (8-Methoxy-2H-pyrazolo[3,4-c]quinolin-4-yl)-(4-piperazin-1-yl-phenyl)-amine], the values for the IC50 in experiment [1] and in experiment [2] were 100 to 1000 nM and under 5000 nM, respectively. The Ki in experiment [3] is under 10 nM.
For `COc1ccc2nc(Nc3cccc(NC(C)=O)c3)c3[nH]ncc3c2c1` [Example #120, N-[3-(8-Methoxy-3H-pyrazolo[3,4-c]quinolin-4-ylamino)-phenyl]-acetamide] the same measures were 10 to 100 nM, under 5000 nM and 10 to 100 nM.
`COc1ccc2nc(Nc3ccccc3)c3n[nH]cc3c2c1` [Example #13, (8-Methoxy-2H-pyrazolo[3,4-c]quinolin-4-yl)-phenyl-amine]: the IC50 was 100 to 1000 nM in experiment [1] and under 5000 nM in experiment [2]. In experiment [3], the Ki was 10 to 100 nM.
On the same counts, the results for `COc1ccc2nc(Nc3ccc(N4CCN(CC5CC5)CC4)cc3)c3n[nH]cc3c2c1` [Example #272, [4-(4-Cyclopropylmethyl-piperazin-1-yl)-phenyl]-(8-methoxy-2H-pyrazolo[3,4-c]quinolin-4-yl)-amine] are 10 to 100 nM, under 5000 nM and under 10 nM.
As to `COc1ccc2nc(Nc3cccc(C(=N)N)c3)c3n[nH]cc3c2c1` [Example #49, 3-(8-Methoxy-2H-pyrazolo[3,4-c]quinolin-4-ylamino)-benzamidine], the results for the IC50 in experiment [1] and in experiment [2] were 100 to 1000 nM and under 5000 nM, respectively. Also, the Ki in experiment [3] is 100 to 1000 nM.
Regarding `COc1ccc(Nc2nc3cc(OC)c(OC)cc3c3c[nH]nc23)cc1OC` [Example #122, (3,4-Dimethoxy-phenyl)-(7,8-dimethoxy-2H-pyrazolo[3,4-c]quinolin-4-yl)-amine], the IC50 was 100 to 1000 nM in experiment [1] and under 5000 nM in experiment [2]. In addition, the Ki in experiment [3] was 10 to 100 nM.
On the same counts, the results for `COc1ccc2nc(Nc3ccc(N4CCN(CC(C)C)CC4)cc3)c3n[nH]cc3c2c1` [Example #270, [4-(4-Isobutyl-piperazin-1-yl)-phenyl]-(8-methoxy-2H-pyrazolo[3,4-c]quinolin-4-yl)-amine] are 100 to 1000 nM, under 5000 nM and under 10 nM.
As for `COc1ccc2nc(Nc3ccc(C(=O)O)cc3)c3n[nH]cc3c2c1` [Example #57, 4-(8-Methoxy-2H-pyrazolo[3,4-c]quinolin-4-ylamino)-benzoic-acid], the IC50 is 100 to 1000 nM in experiment [1] and under 5000 nM in experiment [2]. The Ki in experiment [3] is 10 to 100 nM.
For `COc1cccc2nc(Nc3cc(C4CC4)[nH]n3)c3n[nH]cc3c12` [Example #199, (5-Cyclopropyl-1H-pyrazol-3-yl)-(9-methoxy-2H-pyrazolo[3,4-c]quinolin-4-yl)-amine] the same measures were 10 to 100 nM, under 5000 nM and 10 to 100 nM.
Turning to `CN1CCN(c2ccc(Nc3nc4ccc(Br)cc4c4c[nH]nc34)cc2)CC1` [Example #43, (8-Bromo-2H-pyrazolo[3,4-c]quinolin-4-yl)-[4-(4-methyl-piperazin-1-yl)-phenyl]-amine], the IC50 in experiment [1] was 100 to 1000 nM; in experiment [2] it was under 5000 nM. Besides, the Ki in experiment [3] is under 10 nM.
With `CNS(=O)(=O)c1cccc(Nc2nc3ccc(OC)cc3c3c[nH]nc23)c1` [Example #348, 3-((8-methoxy-2H-pyrazolo[3,4-c]quinolin-4-yl)amino)-N-methylbenzenesulfonamide], the IC50 in experiment [1] is 10 to 100 nM; in experiment [2] it was under 5000 nM. Besides, the Ki in experiment [3] was 10 to 100 nM.
On to `COc1ccc2nc(Nc3ccc(N4CCN(C(C)C)CC4)cc3)c3n[nH]cc3c2c1` [Example #271, [4-(4-Isopropyl-piperazin-1-yl)-phenyl]-(8-methoxy-2H-pyrazolo[3,4-c]quinolin-4-yl)-amine], for which the results for the IC50 in experiment [1] and in experiment [2] were 10 to 100 nM and under 5000 nM, respectively. For the same compound, the Ki in experiment [3] was under 10 nM.
For `COc1cccc2c1nc(Nc1ccc3[nH]cnc3c1)c1n[nH]cc12` [Example #242, (1H-benzoimidazol-5-yl)-(6-methoxy-2H-pyrazolo[3,4-c]quinolin-4-yl)-amine] the same measures were 100 to 1000 nM, under 5000 nM and 10 to 100 nM.
Consider `O=C(O)c1cccc(Nc2nc3ccc(O)cc3c3c[nH]nc23)c1` [Example #296, 3-((8-hydroxy-2H-pyrazolo[3,4-c]quinolin-4-yl)amino)benzoic acid], for which the IC50 is 100 to 1000 nM in experiment [1] and under 5000 nM in experiment [2]. Also, in experiment [3], the Ki is 100 to 1000 nM.
Turning to `COc1ccc2nc(Nc3cccc(S(C)(=O)=O)c3)c3n[nH]cc3c2c1` [Example #320, 8-methoxy-N-(3-(methylsulfonyl)phenyl)-2H-pyrazolo[3,4-c]quinolin-4-amine], the IC50 in experiment [1] was 100 to 1000 nM; in experiment [2], under 5000 nM. Moreover, the Ki in experiment [3] was 100 to 1000 nM.
For the compound `COc1ccc2nc(Nc3ccc(CN)cc3)c3[nH]ncc3c2c1` [Example #73, (4-Aminomethyl-phenyl)-(8-methoxy-3H-pyrazolo[3,4-c]quinolin-4-yl)-amine], the IC50 is 100 to 1000 nM in experiment [1] and under 5000 nM in experiment [2]. For the same compound, in experiment [3], the Ki was 10 to 100 nM.
For the compound `COc1ccc2nc(Nc3ccc4[nH]cnc4c3)c3n[nH]cc3c2c1` [Example #39, (1H-Benzoimidazol-5-yl)-(8-methoxy-2H-pyrazolo[3,4-c]quinolin-4-yl)-amine], the IC50 was 100 to 1000 nM in experiment [1] and under 5000 nM in experiment [2]. In addition, the Ki in experiment [3] is 10 to 100 nM.
For `CCN1CCN(c2ccc(Nc3nc4ccc(OC)cc4c4c[nH]nc34)cc2F)CC1` [Example #240, [4-(4-ethyl-piperazin-1-yl)-3-fluorophenyl]-(8-methoxy-2H-pyrazolo[3,4-c]quinolin-4-yl)-amine] the same measures were 10 to 100 nM, under 5000 nM and 10 to 100 nM.
On the same counts, the results for `COc1cc2nc(Nc3ccc(N4CCN(C)CC4)cc3)c3n[nH]cc3c2cc1OC` [Example #134, (7,8-Dimethoxy-2H-pyrazolo[3,4-c]quinolin-4-yl)-[4-(4-methyl-piperazin-1-yl)-phenyl]-amine] are 100 to 1000 nM, under 5000 nM and 10 to 100 nM.
On the same counts, the results for `COc1ccc2nc(Nc3ccc(N4CCN(CCN(C)C)CC4)cc3)c3n[nH]cc3c2c1` [Example #281, {4-[4-(2-Dimethylamino-ethyl)-piperazin-1-yl]-phenyl}-(8-methoxy-2H-pyrazolo[3,4-c]quinolin-4-yl)-amine] are 10 to 100 nM, under 5000 nM and 10 to 100 nM.
Turning to `COc1ccc2nc(Nc3ccc(OC4CCN(C)CC4)nc3)c3n[nH]cc3c2c1` [Example #255, (8-Methoxy-2H-pyrazolo[3,4-c]quinolin-4-yl)-[6-(1-methyl-piperidin-4-yloxy)-pyridin-3-yl]-amine], the 50% inhibitory concentration (IC50) in experiment [1] was 100 to 1000 nM; in experiment [2], under 5000 nM. For the same compound, in experiment [3], the Ki is 10 to 100 nM.
For the compound `COc1ccc2nc(Nc3cccc(N4CCN(C)CC4)c3)c3n[nH]cc3c2c1` [Example #228, (8-Methoxy-2H-pyrazolo[3,4-c]quinolin-4-yl)-[3-(4-methyl-piperazin-1-yl)-phenyl]-amine], the IC50 in experiment [1] is 100 to 1000 nM; in experiment [2], under 5000 nM. Also, in experiment [3], the Ki is 10 to 100 nM.
For `CC(=O)N1CCN(c2ccc(Nc3nc4ccc(F)cc4c4cn[nH]c34)cc2)CC1` [Example #323, 1-(4-(4-((8-fluoro-3H-pyrazolo[3,4-c]quinolin-4-yl)amino)phenyl)piperazin-1-yl)ethan-1-one], the IC50 in experiment [1] was 100 to 1000 nM; in experiment [2] it was under 5000 nM. Further, the Ki in experiment [3] was 100 to 1000 nM.
Take `COc1ccc2nc(Nc3ccc4[nH]ncc4c3)c3n[nH]cc3c2c1` [Example #38, (1H-Indazol-5-yl)-(8-methoxy-2H-pyrazolo[3,4-c]quinolin-4-yl)-amine]: the results for the IC50 in experiment [1] and in experiment [2] were 100 to 1000 nM and under 5000 nM, respectively. Further, the Ki in experiment [3] was 10 to 100 nM.
Consider `COCC1CCCN1C(=O)c1ccc(Nc2nc3ccc(OC)cc3c3c[nH]nc23)cc1` (stereo not drawn) [Example #301, (4-((8-methoxy-2H-pyrazolo[3,4-c]quinolin-4-yl)amino)phenyl)(2-(methoxymethyl)pyrrolidin-1-yl)methanone], for which the IC50 in experiment [1] was 10 to 100 nM; in experiment [2] it was under 5000 nM. Moreover, the Ki in experiment [3] was 10 to 100 nM.
`COc1ccc2nc(Nc3ccc4ncn(C)c4c3)c3n[nH]cc3c2c1` [Example #148, (8-Methoxy-2H-pyrazolo[3,4-c]quinolin-4-yl)-(3-methyl-3H-benzoimidazol-5-yl)-amine]: the results for the IC50 in experiment [1] and in experiment [2] were 100 to 1000 nM and under 5000 nM, respectively. In experiment [3], the Ki is 100 to 1000 nM.
As for `COc1ccc2nc(Nc3ccc(OC4CCN(C)CC4)cc3)c3n[nH]cc3c2c1` [Example #163, (8-Methoxy-2H-pyrazolo[3,4-c]quinolin-4-yl)-[4-(1-methyl-piperidin-4-yloxy)-phenyl]-amine], the 50% inhibitory concentration (IC50) in experiment [1] was 100 to 1000 nM; in experiment [2] it was under 5000 nM. For the same compound, in experiment [3], the Ki was 10 to 100 nM.

The record behind these values is US9499535B2, “Kinase inhibitors” (ORIGENIS GMBH, priority 2011, dated 2016).
